Test system: Fet-J cells chronically infected with feline immunodeficiency virus (FIV)
Test: Cell density of FIV-infected Fet-J suspension cultures supplemented with antibiotics (trypan blue exclusion on hemacytometer)
Assay type: cell-based
Conditions: for Cell density Day 1 / Cell density Day 2 / Cell density Day 3 / Cell density Day 4 / Cell density Day 5: antibiotic 30 micrograms/mL in serum free media, planted at 3×10^5 viable cells/mL; for Effect on growth / cell density compared with cultures without antibiotic (in words): antibiotic 30 micrograms/mL, Days 1-5
Description: In this example, Fet-J cells chronically infected with feline immunodeficiency virus (FIV) were grown in serum free media such as modified DMEM:F12 Media or AIM V media, supplemented with 2.5 mg/mL of ALBUMAX®, which is derived from BSA. Cells were grown in suspension in Erlenmeyer flasks on a rotary shaker at 150 rpm at 37° C. Cells were planted at a cell density of 3×10^5 viable cells/mL. Cell densities were determined by trypan blue exclusion on hemacytometer. Gp 120 expression determination was accomplished by enzyme linked immunosorbent assay (ELISA) using anti-FIV Gp 120 monoclonal antibodies. The antibiotics assessed for FIV supplementation included gentamycin, neomycin and polymixin B. Media were spiked with respective antibiotics at a concentration of 30 micrograms/mL. Cell densities were determined on a 24 hour basis by the method described above.

Substance | Cell density Day 1 | Cell density Day 2 | Cell density Day 3 | Cell density Day 4 | Cell density Day 5 | Effect on growth / cell density compared with cultures without antibiotic (in words)
gentamycin | 2.4 × 10^5 cell/mL | 3.2 × 10^5 cell/mL | 6.5 × 10^5 cell/mL | 1.1 × 10^6 cell/mL | 1.1 × 10^6 cell/mL | no significant effect
neomycin | 4.7 × 10^5 cell/mL | 7.8 × 10^5 cell/mL | 1.2 × 10^6 cell/mL | 1.3 × 10^6 cell/mL | 1.8 × 10^6 cell/mL | best overall growth and increase in cell densities
polymixin B | 2.9 × 10^5 cell/mL | 4.6 × 10^5 cell/mL | 5.8 × 10^5 cell/mL | 6.6 × 10^6 cell/mL | 6.6 × 10^5 cell/mL | suppressed cell density
